Test results reported in US20250368952A1, “Methods for Culturing Organoids” (Cellesce Limited, priority 2016, published 2025).
Entries after “also recorded” stand apart in the source; their conditions may differ.

Tested on: ISO50 (Isolation number 50) colorectal cancer organoids
Test: Drug titration assay on colorectal cancer organoids cultured in a fed-plate bioreactor (confocal imaging, morphometric analysis)
Format: cell-based
Details: 5 days
Protocol: ISO50 (Isolation number 50) colorectal cancer organoids were cultured in a fed-plate bioreactor for 3 days, recovered from the MATRIGEL™ and stored frozen at −80° C. They were subsequently revived and used to seed a 384-well plate at a density of 350 organoids per well in 12 μl MATRIGEL™. The organoids were fed with 25 μl growth medium containing 0-2.5 μM MK1775, a WEE1 inhibitor (8 replicates). After 5 days, the organoids were fixed and stained with Hoechst (blue fluorescent stain specific for DNA i.e. nuclei of eukaryotic cells) and phalloidin (pink stain for F-actin). […] The actin filaments are spread throughout the structures, but are more concentrated in the lumen, in the centre of the organoid. Representative organoids are pictured from selected wells at each concentration. The overall shape of organoids in an untreated culture, or at low concentrations of inhibitor, can vary from round and cyst-like to convoluted and branched. […] Morphometric analysis of over 1000 parameters of the organoids confirmed the observations of toxicity.

`C=CCn1c(=O)c2cnc(Nc3ccc(N4CCN(C)CC4)cc3)nc2n1-c1cccc(C(C)(C)O)n1` [MK1775] was tested, and the “Organoid morphology (confocal imaging, Hoechst and phalloidin staining)” value (0-2.5 μM in growth medium, 384-well plate, 350 organoids per well, 8 replicates, FIG. 3A) was “cells are shed from the outer layer of the organoid, leading to a loss in complexity and a decrease in the overall size; also recorded: cells are shed from the outer layer of the organoid, leading to a loss of complexity and a decrease in the overall size”, the “Apoptotic nuclei (morphometric analysis)” value (0-2.5 μM, FIG. 3B) was “increase with drug concentration” and the “Nuclei roundness (due to swelling before apoptosis; morphometric analysis)” value (0-2.5 μM, FIG. 3B) was “increase with drug concentration”. For the same molecule, the “Organoid size (morphometric analysis)” value (0-2.5 μM, FIG. 3B) was “decreases with increasing concentrations of inhibitor”.
